Data: ChEMBL document CHEMBL3046869, “Investigation of myorelaxant activity of 9-aryl-3,4,6,7-tetrahydroacridine-1,8-(2H,5H,9H,10H)-diones in isolated rabbit gastric fundus” (2012)
The source made the active and inactive calls. The rule behind the calls is not given here.

What was measured:
Settings in all cases: Stomach
[1] = system: Gastric fundus smooth muscle; experiment: Myorelaxant activity in noradrenaline-precontracted New Zealand Oryctolagus cuniculus (rabbit) gastric fundus smooth muscle strips in presence of large-conductance Ca2+-activated K+ channel blocker iberiotoxin; assay type: functional
[2] = system: Gastric fundus smooth muscle; experiment: Myorelaxant activity in noradrenaline-precontracted New Zealand Oryctolagus cuniculus (rabbit) gastric fundus smooth muscle strips in presence of small-conductance Ca2+-activated K+ channel blocker apamine; assay type: functional
[3] = system: Gastric fundus smooth muscle; experiment: Myorelaxant activity in noradrenaline-precontracted New Zealand Oryctolagus cuniculus (rabbit) gastric fundus smooth muscle strips in presence of K-ATP channel blocker glibenclamide; assay type: functional
[4] = system: Gastric fundus smooth muscle; experiment: Myorelaxant activity in noradrenaline-precontracted New Zealand Oryctolagus cuniculus (rabbit) gastric fundus smooth muscle strips in presence of Ca2+-activated K+ channel blocker TEA; assay type: functional
Oryctolagus cuniculus [5] = organism: Oryctolagus cuniculus; experiment: Activation of potassium channel in noradrenaline-precontracted New Zealand Oryctolagus cuniculus (rabbit) gastric fundus smooth muscle strips assessed as muscle relaxant activity; assay type: tissue-based
Oryctolagus cuniculus [6] = organism: Oryctolagus cuniculus; experiment: Activation of potassium channel in noradrenaline-precontracted New Zealand Oryctolagus cuniculus (rabbit) gastric fundus smooth muscle strips assessed as muscle relaxant activity relative to control; assay type: tissue-based
[7] = system: Gastric fundus smooth muscle; experiment: Myorelaxant activity in noradrenaline-precontracted New Zealand Oryctolagus cuniculus (rabbit) gastric fundus smooth muscle strips in presence of KV blocker 4-aminopyridine

CC1CC(=O)C2=C(C1)NC1=C(C(=O)CC(C)C1)C2c1ccc([N+](=O)[O-])cc1 (configuration not stated)
Emax [1]: 82.5% | Emax [2]: 54.5% | Emax [3]: 52% | Emax [4]: 74.4% | pD2 (Oryctolagus cuniculus [5]): 4.66 | Emax (Oryctolagus cuniculus [6]): 53.9% | Emax [7]: 51.4%

CC1CC(=O)C2=C(C1)NC1=C(C(=O)CC(C)C1)C2c1cccc([N+](=O)[O-])c1 (configuration not stated)
Emax [1]: 54.4% | Emax [2]: 35.3% | Emax [3]: 51.8% | Emax [4]: 54.6% | pD2 (Oryctolagus cuniculus [5]): 4.57 | Emax (Oryctolagus cuniculus [6]): 62.1% | Emax [7]: 54.1%

CC(N/C(=N\C#N)Nc1ccncc1)C(C)(C)C (configuration not stated)
pD2 (Oryctolagus cuniculus [5]): 4.9 | Emax (Oryctolagus cuniculus [6]): 73.5%

CC1CC(=O)C2=C(C1)NC1=C(C(=O)CC(C)C1)C2c1ccccc1C(F)(F)F (configuration not stated)
Emax [1]: inactive | Emax [2]: inactive | Emax [3]: inactive | Emax [4]: inactive | pD2 (Oryctolagus cuniculus [5]): inactive | Emax (Oryctolagus cuniculus [6]): inactive | Emax [7]: inactive

CC1CC(=O)C2=C(C1)NC1=C(C(=O)CC(C)C1)C2c1ccccc1[N+](=O)[O-] (configuration not stated)
Emax [1]: inactive | Emax [2]: inactive | Emax [3]: inactive | Emax [4]: inactive | pD2 (Oryctolagus cuniculus [5]): inactive | Emax (Oryctolagus cuniculus [6]): inactive | Emax [7]: inactive

CC1CC(=O)C2=C(C1)NC1=C(C(=O)CC(C)C1)C2c1ccc(F)cc1 (configuration not stated)
Emax [1]: 39.1% | Emax [2]: 39.3% | Emax [3]: 46.7% | Emax [4]: 18.8% | pD2 (Oryctolagus cuniculus [5]): 4.6 | Emax (Oryctolagus cuniculus [6]): 37.2% | Emax [7]: 21.8%

CC1CC(=O)C2=C(C1)NC1=C(C(=O)CC(C)C1)C2c1ccc(C#N)cc1 (configuration not stated)
Emax [1]: 52% | Emax [2]: 45.7% | Emax [3]: 45.2% | Emax [4]: 45.2% | pD2 (Oryctolagus cuniculus [5]): 4.57 | Emax (Oryctolagus cuniculus [6]): 46% | Emax [7]: 51.1%

CC1CC(=O)C2=C(C1)NC1=C(C(=O)CC(C)C1)C2c1cccc(C(F)(F)F)c1 (configuration not stated)
Emax [1]: inactive | Emax [2]: inactive | Emax [3]: inactive | Emax [4]: inactive | pD2 (Oryctolagus cuniculus [5]): inactive | Emax (Oryctolagus cuniculus [6]): inactive | Emax [7]: inactive

CC1CC(=O)C2=C(C1)NC1=C(C(=O)CC(C)C1)C2c1ccc(C(F)(F)F)cc1 (configuration not stated)
Emax [1]: 43.3% | Emax [2]: 26.7% | Emax [3]: 43.8% | Emax [4]: 35.1% | pD2 (Oryctolagus cuniculus [5]): 4.68 | Emax (Oryctolagus cuniculus [6]): 33.8% | Emax [7]: 14%

CC1CC(=O)C2=C(C1)NC1=C(C(=O)CC(C)C1)C2c1ccccc1F (configuration not stated)
Emax [1]: inactive | Emax [2]: inactive | Emax [3]: inactive | Emax [4]: inactive | pD2 (Oryctolagus cuniculus [5]): inactive | Emax (Oryctolagus cuniculus [6]): inactive | Emax [7]: inactive

CC1CC(=O)C2=C(C1)NC1=C(C(=O)CC(C)C1)C2c1cccc(C#N)c1 (configuration not stated)
Emax [1]: 30.9% | Emax [2]: 60.6% | Emax [3]: 66% | Emax [4]: 44.6% | pD2 (Oryctolagus cuniculus [5]): 4.7 | Emax (Oryctolagus cuniculus [6]): 56% | Emax [7]: 32.3%
